# Laboratory results as given in ChEMBL document CHEMBL1201862, “PubChem BioAssay data set” (2004).
#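 48-hour exposure; five concentrations; linearly interpolated endpoints. GI50 = concentration required for 50% inhibition of growth.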 The source made the active and inactive calls. Cut-off read from the data, not from the text of the source: active = GI50 up to about 1.1 µM and inactive = higher.
# Assays:
# Assay in all cases: DTP human tumour cell line panel, 48 h
# [1] = system: Hs-578T
# [2] = system: NCI/ADR-RES
# [3] = system: KM12
# [4] = system: UACC-257
# [5] = system: HCT-116
# [6] = system: OVCAR-4
# [7] = system: NCI-H23
# [8] = system: SNB-19
# [9] = system: BT-549
# [10] = system: K562
# [11] = system: HCC 2998
# [12] = system: Malme-3M
# [13] = system: LOX IMVI
# [14] = system: SK-MEL-2
# [15] = system: U-251
# [16] = system: A498
# [17] = system: SK-MEL-5
# [18] = system: DU-145
# [19] = system: CAKI-1
# [20] = system: M14
SMILES,GI50 [1],GI50 [2],GI50 [3],GI50 [4],GI50 [5],GI50 [6],GI50 [7],GI50 [8],GI50 [9],GI50 [10],GI50 [11],GI50 [12],GI50 [13],GI50 [14],GI50 [15],GI50 [16],GI50 [17],GI50 [18],GI50 [19],GI50 [20]
COc1ccc(-c2c(C#N)c(=O)nc(SC)n2C2OCC(OC(C)=O)C(OC(C)=O)C2OC(C)=O)cc1 (stereo not given),31.6 µM (inactive),91.2 µM (inactive),> 100 µM (inactive),> 100 µM (inactive),31.6 µM (inactive),> 100 µM (inactive),> 100 µM (inactive),91.8 µM (inactive),68.2 µM (inactive),18.1 µM (inactive),> 100 µM (inactive),> 100 µM (inactive),64.1 µM (inactive),> 100 µM (inactive),57.8 µM (inactive),62.1 µM (inactive),45 µM (inactive),> 100 µM (inactive),> 100 µM (inactive),> 100 µM (inactive)
NC(=S)N1N=C(c2ccc3c(c2)CCC3)CC1c1ccccc1 (stereo not given),6.12 µM (inactive),15.6 µM (inactive),11.4 µM (inactive),21.4 µM (inactive),22 µM (inactive),7.18 µM (inactive),25.1 µM (inactive),34.6 µM (inactive),22.5 µM (inactive),13.1 µM (inactive),16.1 µM (inactive),22.6 µM (inactive),31.5 µM (inactive),13.7 µM (inactive),20.4 µM (inactive),12.5 µM (inactive),12.8 µM (inactive),23 µM (inactive),21.3 µM (inactive),26.7 µM (inactive)
CC(C)c1ccc2c(c1)CCC1C(C)(CN)CCCC21C (stereo not given),1.63 µM (inactive),1.64 µM (inactive),1.69 µM (inactive),1.69 µM (inactive),1.59 µM (inactive),1.61 µM (inactive),1.7 µM (inactive),1.77 µM (inactive),1.88 µM (inactive),0.551 µM (active),0.0438 µM (active),1.43 µM (inactive),1.43 µM (inactive),1.73 µM (inactive),1.38 µM (inactive),1.61 µM (inactive),1.8 µM (inactive),1.77 µM (inactive),1.41 µM (inactive),1.67 µM (inactive)
